Consider two substances from US6951647B2, “T cell binding ligand peptides and method of inducing a cellular immune response” (Cel-Sci Corporation, priority 2001, dated 2005).

The test system of assay [1] is modified HGP-30 (mH, SEQ ID NO:6). As to the kind of experiment: Isotype analysis (ELISA) of anti-mH antibody in sera of immunized mice. Type of assay: in vivo. The conditions noted are these: ELISA signal, day 42 test bleeding. Also on record: IgG1 / IgG2a / IgG2b / IgG3: unit not given here. On the procedure: (§1) Mice in groups (5-10 animals per group as designated) are immunized with the LEAPS constructs (25 μg/dose) of SEQ ID NO's:37, 38 and 39, in 0.2 mL emulsified 1:1 with adjuvant (Seppic's ISA-51 or Corixa's microfluidized MPL S/E) on days 0 and 14. Mice are evaluated by Delayed Type of Hypersensitivity (DTH) by inoculation on day 26 with 20 μl of a solution of saline or mH (SEQ ID NO:6) (25 μg in saline) in the left or right ear respectively. The DTH response is determined by measurement of the ear thickness 48 hours later and expressed as increase in ear thickness (mm) of experimental ear compared to that of the control ear. Individual animal sera are collected for measurement of antibody on day 28, 42, 63 and 77. Sera from individual animals and group pools are evaluated for specific anti-mH antibody, for total antibody, IgG1, IgG2a and IgG3 antibody isotype and cross clade titer at selected time points as indicated.
The results of an isotype analysis of day 42 test bleedings with G′-mH (SEQ ID NO:37), G-mH (SEQ ID NO:38), J-mH (SEQ ID NO:39), F-mH (SEQ ID NO:40) and F-HGP-30 (SEQ ID NO:41), are shown in Table 1.
An isotype analysis for pools of day 28 test bleedings G-mH, G′-mH and m-HGP-30/KLH using either MPL S/E or ISA51 as adjuvant, are shown in Table 3.
A general note: ELISA stands for enzyme-linked immunosorbent assay.

A further assay has as its system B Clade. As to the kind of experiment: ELISA cross clade recognition by sera of immunized mice, B Clade. The assay is classed as in vivo. The conditions noted are these: day 63 test bleeding, sera 1:200, individual mouse. As for the experimental part:
as §1
(§2) The mouse sera for the ELISA was used at a dilution of 1:200. Again, clearly, the construct provides higher signals indicative of higher levels of the antibodies that recognized other clades besides the parental one (Clade B) of mH.
(§3) A cross clade analysis for pools of day 42 test bleedings from the same groups as used in Table 3, were obtained and the results are shown in Table 4.

The next assay relates to D Clade. As to the kind of experiment: ELISA cross clade recognition by sera of immunized mice, D Clade. Type of assay: in vivo. Conditions: day 63 test bleeding, sera 1:200, individual mouse. As for the experimental part: as §1, §2, §3
The next assay relates to C Clade. Kind of assay: ELISA cross clade recognition by sera of immunized mice, C Clade. Type of assay: in vivo. Conditions: day 63 test bleeding, sera 1:200, individual mouse. As for the experimental part: as §1, §2, §3
For assay [2], the system named is modified HGP-30. As to the kind of experiment: Delayed Type Hypersensitivity (DTH) ear thickness response with antisera depletion of CD4 or CD8 cells. The assay is classed as in vivo, Mice. On the procedure: as §1
Select immunoglobulin preparations were obtained from Dr. Stephen Hoffmann, Malaria Program, U.S. Navy. […] This allows one to determine some parts of the nature of various cellular (e.g., T-cell) involvement in the early stage of immune system response with the LEAPS peptide-constructs. It is recognized, however, that this is only a temporary event since new cells are continuously being developed from stem cells and the animals become resistant to the reagents.
The animals are pretreated with the antisera as indicated for 5 days before the initial immunization with peptide-construct having SEQ ID NO:37 or SEQ ID NO:39 on […]. No pretreatment is done before the booster immunization on day 14 or DTH on day 26-28. The mice are then inoculated with the test antigen or saline (control) on day 26 in the left and right ears, respectively, and the DTH response is measured on day 28. The difference between the values for the test and saline control ears is calculated for each group of five animals along with the standard error of the mean (sem) and the results are plotted (see FIG. 1). Also shown in FIG. 1 are values for the untreated animals and animals immunized on day 14 only.
The DTH (Delayed Type Hypersensitivity) data is statistically significant with a t-test of 0.05 for SEQ ID NO:39 and anti-CD8. The DTH for pretreatment of SEQ ID NO:37 immunized mice with anti-CD4 was just above the cutoff limit for statistical significance due to a weaker DTH response and small group size.

In a further assay the test system is E Clade. As to the kind of experiment: ELISA cross clade recognition by sera of immunized mice, E Clade. The conditions noted are these: day 63 test bleeding, sera 1:200, individual mouse. The assay is classed as in vivo. As for the experimental part:
as §1, §2, §3

The subject of assay [3] is modified HGP-30. Kind of assay: ELISA antibody screening of sera of immunized mice on modified HGP-30. The assay is classed as in vivo. Conditions: day 63 test bleeding, sera 1:200, individual mouse. On the procedure: as §1, with “indicated. […]” for “indicated.”
The mark [4] stands for this setting: Day 14 Injection Only (immunized with construct on day 14 only), average of group of 5 mice.
Setting [5] is: Treatment Anti CD4, daily for 5 days before immunization, average of group (5 mice).
[6] abbreviates: Treatment Anti CD8, daily for 5 days before immunization, average of group of 5 mice.
Setting [7] is: Treatment None, average of group (5 mice), ISA 51 adjuvant.
Where [8] appears, read: Treatment Normal rat IgG, daily for 5 days before immunization, average of group (5 mice).

Several values for one entry are separate records, joined by “and”; a condition that tells them apart may be missing. Equal entries are not always repeated. Marks after values point to notes of the source that are not given here.

With “DLL KNG ERI EKV EGG GAT LYS VHQ RID VKD TKE ALE KIE EEQ NKS (DGQEEKAGVVSTGLIGGGQYSWFVNGTF) [SEQ ID NO: 59, Peptide J linked by GGG spacer to modified HGP-30 (mH)]”, the IgG1 is 0.717 in assay [1] (group Average); 0.002 and 1.603 and 0.014 and 2.023 and 2.199 and 0.053 and 0.057 and 0.505 and 0.000 in assay [1] (individual mouse). In addition, the IgG2a is 0.046 in assay [1] (group Average); 0.002 (2×) and 0.027 and 0.000 (2×) and 0.299 and 0.060 and 0.014 and 0.011 in assay [1] (individual mouse). For the same substance, the IgG2b is 0.019 in assay [1] (group Average); 0.002 and 0.014 and 0.000 (5×) and 0.113 and 0.039 in assay [1] (individual mouse). The IgG3 in assay [1] (group Average) was 0.070; in assay [1] (individual mouse) it was 0.017 and 0.032 and 0.009 and 0.227 and 0.324 and 0.000 (2×) and 0.003 and 0.016. For the same substance, the “ELISA signal on B Clade” value in the assay on B Clade is 0.262 and 0.000 (6×) and 0.575 and 0.026. In addition, the “ELISA signal on D Clade” value with D Clade was 0.120 and 0.004 and 0.196 and 0.000 (6×). For the same substance, in the assay with C Clade, the “ELISA signal on C Clade” value is 2.421 and 1.699 and 1.295 and 0.969 and 0.665 and 0.780 and 0.171 and 1.370 and 2.322. Also, the “Left Ear thickness, inoculated day 26 with HGP-30, measured after 48 hours” value stood at 0.254 mm in the assay with modified HGP-30 [2] (setting [4]); 0.288 mm in the assay with modified HGP-30 [2] (setting [5]); 0.233 mm in the assay on modified HGP-30 [2] (setting [6]); 0.288 mm in the assay with modified HGP-30 [2] (setting [7]); 0.296 mm with modified HGP-30 [2] (setting [8]). For the same substance, the “Right Ear thickness, inoculated day 26 with saline, measured after 48 hours” value in the assay on modified HGP-30 [2] (setting [4]) is recorded as 0.231 mm; in the assay with modified HGP-30 [2] (setting [5]), 0.240 mm; in the assay with modified HGP-30 [2] (setting [6]) it was 0.220 mm; with modified HGP-30 [2] (setting [7]), 0.222 mm; in the assay on modified HGP-30 [2] (setting [8]), 0.227 mm. Further, the “DTH % increase (L-R)/R” value with modified HGP-30 [2] (Day 14 Injection Only, average of group of 5 mice) is reported as 10.00%; in the assay with modified HGP-30 [2] (Treatment Anti CD4, average of group (5 mice)), 20.00%; with modified HGP-30 [2] (Treatment Anti CD8, average of group of 5 mice), 6.20%***; with modified HGP-30 [2] (Treatment None, average of group (5 mice)), 29.30%; in the assay with modified HGP-30 [2] (Treatment Normal rat IgG, average of group (5 mice)), 30.60%. Also, the “Type of cells required for a DTH response” value with modified HGP-30 [2] (cell specific antisera as depletion reagent for the primary immunization (FIG. 1)) is “requires the presence and presumably activation of CD8+ but not CD4+ cells”. Further, the “ELISA signal on E Clade” value in the assay on E Clade was 2.431 and 1.565 and 0.789 and 0.788 and 0.554 and 0.722 and 0.142 and 1.379 and 2.379. The “ELISA signal on modified HGP-30” value in the assay on modified HGP-30 [3] was 0.440 and 0.011 and 0.753 and 0.905 and 0.793 and 0.100 and 0.035 and 0.000 (2×).

Regarding “VQG EES NDK GGG YSV HQR IDV KDT KEA LEK IEE EQN KSK KKA (DLLKNGERIEKVEGGGSTAPPAHGV) [SEQ ID NO: 63, Peptide F linked by GGG spacer to HGP-30]”, in assay [1] (group Average), the IgG1 amounted to 0.652, the IgG2a is listed as 0.071, the IgG2b was found to be 0.024 and the IgG3 was found to be 0.044. In addition, in assay [1] (individual mouse), the IgG1 is 0.761 and 0.181 and 0.649 and 0.417 and 0.022 and 1.379 and 0.030 and 0.349 and 0.717 and 2.018; the IgG2a is 0.051 and 0.018 and 0.020 and 0.007 and 0.000 (2×) and 0.048 and 0.026 and 0.192 and 0.350; the IgG2b was 0.003 and 0.001 and 0.007 and 0.005 and 0.006 and 0.028 and 0.047 and 0.000 and 0.027 and 0.117; the IgG3 is 0.040 and 0.006 and 0.104 and 0.173 and 0.009 and 0.013 and 0.007 and 0.000 and 0.058 and 0.028. In addition, the “ELISA signal on B Clade” value with B Clade was 0.000 (6×) and 0.282 and 1.977 and 0.667 and 0.011. In the assay on D Clade, the “ELISA signal on D Clade” value was 0.000 (5×) and 0.012 and 0.005 and 1.941 and 0.386 and 0.050. In the assay with C Clade, the “ELISA signal on C Clade” value was 0.000 (5×) and 0.135 and 0.010 and 1.878 and 0.650 and 1.051. Besides, the “ELISA signal on E Clade” value in the assay with E Clade is 0.000 (7×) and 1.565 and 0.042 and 1.010. In addition, in the assay with modified HGP-30 [3], the “ELISA signal on modified HGP-30” value was 0.065 and 0.216 and 0.128 and 0.000 and 0.110 and 0.017 and 0.201 and 0.623 and 0.747 and 0.013.
